The source of these data is the supplement of paper PMC11616607.

One experiment relates to COV318. As to the kind of experiment: drug sensitivity score (DSS) from 5-point dose-response viability curve (DSS (area-under-curve based score)); higher = more sensitive (stronger growth inhibition or killing); extreme values may be limits of the assay. To be noted: exposure time: 72 h; concentration range: 5 concentrations over 10,000-fold range. A digest of the protocol: (§1)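 Viability of ovarian cancer and normal ovarian cell lines was read by CellTiter-Glo luminescence after 3 days at 37°C and 5% CO2 in 384-well plates holding 1,500 cells per well. Drugs had been dispensed in DMSO or water with an Echo 550 at five concentrations over a 10,000-fold range. Using Breeze software, a drug sensitivity score was assigned per cell line and drug, higher scores meaning more sensitive, and zero means no response.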
Take `COc1ccc(-c2ccc3ncc4c(c3c2)n(-c2ccc(N3CCNCC3)c(C(F)(F)F)c2)c(=O)n4C)cn1` [NVP-BGT226]: the drug sensitivity score turned out to be 9.3. Compound `Cc1ccc(C(=O)Nc2cccc(C(F)(F)F)c2)cc1Nc1nc(-c2cccnc2)nc2c1cnn2C` [NVP-BHG712] had a drug sensitivity score of 2.8.

The compound `COc1cc2c(cc1OC(C)C)[C@H](c1ccc(Cl)cc1)N(c1ccc(N(C)C[C@H]3CC[C@H](N4CCN(C)C(=O)C4)CC3)cc1)C(=O)C2` [NVP-CGM097] registered a drug sensitivity score of 5.9. On the same count and under the same terms, as for `CN[C@@H](C)C(=O)N[C@H](C(=O)N1CCC[C@H]1c1nc(C(=O)c2ccc(F)cc2)cs1)C1CCCCC1` [NVP-LCL161], the figure is 0.8. Same read-out and setting: with `Cn1c(Nc2ccc(C(F)(F)F)cc2)nc2cc(Oc3ccnc(-c4ncc(C(F)(F)F)[nH]4)c3)ccc21` [NVP-RAF265] the figure was 0. Still for that read-out and setting: as for `CC(=O)c1cc2c(o1)C(=O)c1ccccc1C2=O` [Napabucasin], the figure is 16.2. Take `CC1(C)CCC(c2ccc(Cl)cc2)=C(CN2CCN(c3ccc(C(=O)NS(=O)(=O)c4ccc(N[C@H](CCN5CCOCC5)CSc5ccccc5)c(S(=O)(=O)C(F)(F)F)c4)cc3)CC2)C1` [Navitoclax]: the drug sensitivity score worked out at 0. On the same count and under the same terms, as for `CN1C(=O)N[C@H](Cc2c[nH]c3c(Cl)cccc23)C1=O` [Necrostatin 2], the figure is 0. The same measure, in the same setting: as for `O=c1ncn2nc(Sc3ccc(F)cc3F)ccc2c1-c1c(Cl)cccc1Cl` [Neflamapimod], the figure is 0.8; as for `COc1nc(N)nc2c1ncn2[C@@H]1O[C@H](CO)[C@@H](O)[C@@H]1O` [Nelarabine], 0; as for `CCOc1cc2ncc(C#N)c(Nc3ccc(OCc4ccccn4)c(Cl)c3)c2cc1NC(=O)/C=C/CN(C)C` [Neratinib], 0. The same measure, in the same setting: as for `Cc1cn(-c2cc(NC(=O)c3ccc(C)c(Nc4nccc(-c5cccnc5)n4)c3)cc(C(F)(F)F)c2)cn1` [Nilotinib], the figure is 0.1; as for `CC1(C)NC(=O)N(c2ccc([N+](=O)[O-])c(C(F)(F)F)c2)C1=O` [Nilutamide], 0; as for `COC(=O)c1ccc2c(c1)NC(=O)/C2=C(\Nc1ccc(N(C)C(=O)CN2CCN(C)CC2)cc1)c1ccccc1` [Nintedanib], 2.5. `NC(=O)c1cccc2cn(-c3ccc([C@@H]4CCCNC4)cc3)nc12` [Niraparib] came in with a drug sensitivity score of 1.1.

Another experiment concerns COV362. Described as above. The settings on record: exposure time: 72 h; concentration range: 5 concentrations over 10,000-fold range. A digest of the protocol:
as §1
`C[C@H]1C[C@@H]2[C@H]([C@@H](O)C[C@@]3(C)[C@H]2CC[C@]3(O)C(=O)CO)[C@@]2(C)C=CC(=O)C=C12` [Methylprednisolone] displayed a drug sensitivity score of 1.2. The same measure, in the same setting: as for `CO[C@@H]1[C@H](N(C)C(=O)c2ccccc2)C[C@H]2O[C@]1(C)n1c3ccccc3c3c4c(c5c6ccccc6n2c5c31)C(=O)NC4` [Midostaurin], the figure is 5; as for `CNC(=O)c1nn(C)c2c1C(C)(C)Cc1cnc(Nc3ccc(N4CCN(C)CC4)cc3)nc1-2` [Milciclib], 5.4; as for `CCCCCCCCCCCCCCCCOP(=O)([O-])OCC[N+](C)(C)C` [Miltefosine], 3.4.

Compound `CO[C@@]12[C@H](COC(N)=O)C3=C(C(=O)C(C)=C(N)C3=O)N1C[C@@H]1N[C@@H]12` [Mitomycin C] yielded a drug sensitivity score of 0. Still for that read-out and setting: as for `Clc1ccc(C(c2ccccc2Cl)C(Cl)Cl)cc1` (stereo not given) [Mitotane], the figure is 0; as for `O=C1c2c(O)ccc(O)c2C(=O)c2c(NCCNCCO)ccc(NCCNCCO)c21` [Mitoxantrone], 4. Compound `CCS(=O)(=O)Nc1ccc(Oc2ccc(F)cc2F)c(-c2cn(C)c(=O)c3[nH]ccc23)c1` [Mivebresib] displayed a drug sensitivity score of 9.4. Still for that read-out and setting: with `Nc1ccccc1NC(=O)c1ccc(CNc2nccc(-c3cccnc3)n2)cc1` [Mocetinostat] the figure was 1.1; with `CCNC(=O)C[C@@H]1N=C(c2ccc(Cl)cc2)c2cc(OC)ccc2-n2c(C)nnc21` [Molibresib], 2.3. `N#CCNC(=O)c1ccc(-c2ccnc(Nc3ccc(N4CCOCC4)cc3)n2)cc1` [Momelotinib] registered a drug sensitivity score of 1. The same measure, in the same setting: as for `CC1(C)CNc2cc(NC(=O)c3cccnc3NCc3ccncc3)ccc21` [Motesanib], the figure is 0; as for `CCCN(CCC)C(=O)C1=Cc2ccc(-c3ccc(C(=O)N4CCCC4)cc3)cc2N=C(N)C1` [Motolimod], 0; as for `FC(F)(F)c1ccc(/C=C/c2nc(COc3ccc(CCCCn4ccnn4)cc3)co2)cc1` [Mubritinib], 0. On the same count and under the same terms, with `Cc1cc(OCc2nnc(SC3CCCC3)n2-c2cccnc2)ccc1-c1ccc(S(C)(=O)=O)cc1` [NMS-873] the figure was 4.4; with `COc1ccc(-c2ccc3ncc4c(c3c2)n(-c2ccc(N3CCNCC3)c(C(F)(F)F)c2)c(=O)n4C)cn1` [NVP-BGT226], 4.6; with `Cc1ccc(C(=O)Nc2cccc(C(F)(F)F)c2)cc1Nc1nc(-c2cccnc2)nc2c1cnn2C` [NVP-BHG712], 5.6.

Compound `COc1cc2c(cc1OC(C)C)[C@H](c1ccc(Cl)cc1)N(c1ccc(N(C)C[C@H]3CC[C@H](N4CCN(C)C(=O)C4)CC3)cc1)C(=O)C2` [NVP-CGM097] came in with a drug sensitivity score of 4.6. Still for that read-out and setting: with `CN[C@@H](C)C(=O)N[C@H](C(=O)N1CCC[C@H]1c1nc(C(=O)c2ccc(F)cc2)cs1)C1CCCCC1` [NVP-LCL161] the figure was 1.9; with `Cn1c(Nc2ccc(C(F)(F)F)cc2)nc2cc(Oc3ccnc(-c4ncc(C(F)(F)F)[nH]4)c3)ccc21` [NVP-RAF265], 0; with `CC(=O)c1cc2c(o1)C(=O)c1ccccc1C2=O` [Napabucasin], 12.4. The same measure, in the same setting: as for `CC1(C)CCC(c2ccc(Cl)cc2)=C(CN2CCN(c3ccc(C(=O)NS(=O)(=O)c4ccc(N[C@H](CCN5CCOCC5)CSc5ccccc5)c(S(=O)(=O)C(F)(F)F)c4)cc3)CC2)C1` [Navitoclax], the figure is 0; as for `CN1C(=O)N[C@H](Cc2c[nH]c3c(Cl)cccc23)C1=O` [Necrostatin 2], 0; as for `O=c1ncn2nc(Sc3ccc(F)cc3F)ccc2c1-c1c(Cl)cccc1Cl` [Neflamapimod], 0. With `COc1nc(N)nc2c1ncn2[C@@H]1O[C@H](CO)[C@@H](O)[C@@H]1O` [Nelarabine], the drug sensitivity score amounted to 0.

The compound `CCOc1cc2ncc(C#N)c(Nc3ccc(OCc4ccccn4)c(Cl)c3)c2cc1NC(=O)/C=C/CN(C)C` [Neratinib] showed a drug sensitivity score of 0.

The compound `Cc1cn(-c2cc(NC(=O)c3ccc(C)c(Nc4nccc(-c5cccnc5)n4)c3)cc(C(F)(F)F)c2)cn1` [Nilotinib] came in with a drug sensitivity score of 1.2. Still for that read-out and setting: as for `CC1(C)NC(=O)N(c2ccc([N+](=O)[O-])c(C(F)(F)F)c2)C1=O` [Nilutamide], the figure is 0. Take `COC(=O)c1ccc2c(c1)NC(=O)/C2=C(\Nc1ccc(N(C)C(=O)CN2CCN(C)CC2)cc1)c1ccccc1` [Nintedanib]: the drug sensitivity score amounted to 1.8.

Compound `NC(=O)c1cccc2cn(-c3ccc([C@@H]4CCCNC4)cc3)nc12` [Niraparib] showed a drug sensitivity score of 0.
